Test results taken from patent publication US8962646B2, “Peripherally acting opioid compounds” (Alkermes, Inc., priority 2011, dated 2015).
Entries after “also recorded” stand apart in the source; their conditions may differ. Counter-ions that a name gives are not always drawn. Like-named read-outs stand apart in the source and are kept apart here.

Key:
formalin-induced events = test: Formalin model of pain; format: in vivo; details: rats; for ED50: Rattus norvegicus, sc, read-out: Formalin test ED50
Method: Nonfasted male Harlan rats were assigned to treatment group according to a randomized block study design to balance for test chamber and time of day, and day of test (if applicable). Each rat was administered either vehicle or test compound subcutaneously and then placed in their assigned test chamber and acclimated for 25-30 minutes with the chamber enclosure door left open. Data was not collected during this period. Following the acclimation period, each rat was removed individually starting with chamber 1, and dosed 5% formalin subcutaneously into the right rear paw plantar surface (formalin was made from a 37% stock solution, diluted down to 5% with saline).
Data collection started when the first rat was replaced in chamber 1 and the chamber door was closed and latched (skipped 1-minute acclimation screen on software). The number of events (also defined as “number of seconds”), defined as the number of 1-second bins with a change in dynamic force that exceeded an empirically determined threshold value (a value of arbitrary load units, which corresponded visually with rats quietly breathing or sniffing), were totaled in 5-minute intervals. In control rats, the number of events first increases within 5 minutes and then decreases during the subsequent 5 minutes (a quiescent phase) after formalin administration (Phase I, or Early Phase, of the formalin test), then increases again during the subsequent 35 minutes (Phase II, or Late Phase) of the formalin test. Formalin-induced movements detected by the system include licking and flinching of the affected paw as well as hopping and turning.
For constructing summaries for analysis of dose response curves or screens in the formalin test, the total number of events during the first 5 minutes after formalin administration was considered to be Phase I (Early Phase), and the total number of events for minutes 11 to 35 after formalin was considered to be Phase II (Late Phase). Data were analyzed using 1-way ANOVA, and comparisons of drug treatment groups were compared with control groups using appropriate, statistician-guided tests—most commonly Dunnett's for dose response curves and a Student's t-test for two-group (i.e. vehicle vs. positive control) comparison—utilizing JMP statistical software (SAS Institute Inc, Cary, N.C.). Data was expressed as means±SEM. An ED50 was calculated utilizing GraphPad Prism software.

[1] = system: CFA-induced weight bearing deficits; test: CFA induced weight bearing deficits in rats; details: for Analgesic effect with concurrent intra-plantar 75 ug naloxone methiodide: 10 μg/paw intra-plantar; for Reversal of CFA-induced weight bearing deficits: intra-plantar, 3, 10 and 30 μg/paw
Method: Animals were habituated to the weight bearing test apparatus for 2 days prior to the start of the experiment. On Day 0, rats were tested in the weight bearing apparatus to measure baseline weight bearing of untreated hind paws. Following baseline testing, animals were injected intra-plantar with Complete Freund's Adjuvant (CFA). Using a syringe with a locking hub and 25 G needle, rats were injected via rear, left intra-plantar administration with 100 μL of 100% CFA (1.0 mg/ml) while under light isofluorane anesthesia. No treatment was administered to the right, rear, contralateral paw.
Intra-plantar test-compound administration was done while the animal was under light (3%) isofluorane anesthesia using 0.3 ml insulin syringe. The amount of anesthesia given to the animal during test compound administration was limited to a very short duration, so not to impede measurement of weight bearing at the 5 minute time point. On Day 1 (24 hrs post CFA), rats were tested in the weight bearing apparatus to measure CFA-induced changes in weight bearing. […] Following test compound administration, animals were retested in the weight bearing apparatus at the following time points: 5, 15, 30, 60 and 120 minutes post-test compound administration. Animals were retested on Day 2 (post-CFA) if there is a significant change in CFA induced weight bearing at the 120 minute time point on Day 1.

[2] = system: hot plate response latency; test: Rat hot plate model of centrally mediated analgesia
Method: Rats were then tested on the hot plate 5, 30, 60, 120, 240 and 360 minutes later. The amount of time it took to lick one hind paw is measured and is considered the response latency. The mean and SEM of the responses latencies for each experimental group were calculated and a line depicting mean hot plate latency vs. time was generated using GraphPad Prism. An increase in mean response latency above baseline following test compound administration is indicative of an antinociceptive effect.

mice = test: In vivo behavioral studies (clinical observation assay); details: 10 mg/kg SC, observed over 24 hours
Method: Groups of mice (n=5 per group; >60 days; 20-25 grams weight) were dosed with vehicle (0.9% sterile saline) or test compounds (10 mg/kg free base, SC) 30 minutes before the first observation period. The occurrence of Straub tail, piloerection, hyperlocomotion, hypolocomotion, circling of the cage, sedation, breathing abnormalities, diuresis, seizure activity and occurrences of death were recorded at 0.5, 1, 2, 4, 6 and 24 hours following dosing.
This is tested with our clinical observation assay where mice are injected with 10 mg/kg subcutaneously with drug and the behaviors are noted over 24 hours.

human μ opioid receptor [3] = molecular target: T1, human μ opioid receptor (Homo sapiens (Human), UniProt P35372); details: read-out: Binding affinity μ (Ki, nm)
human κ opioid receptor = human κ opioid receptor (Homo sapiens (Human), UniProt P41145); details: read-out: Binding affinity κ (Ki, nm)
human δ opioid receptor = human δ opioid receptor (Homo sapiens (Human), UniProt P41143); test: Receptor binding, competitive displacement of [3H]naltrindole; details: CHO cell membranes, cloned human receptor, 0.2 nM [3H]naltrindole
human μ opioid receptor [4] = molecular target: T1, human μ opioid receptor; format: biochemical
Method: The [^35S]GTPγS assay measures the functional properties of a compound by quantifying the level of G-protein activation following agonist binding in studies using stably transfected cells, and is considered to be a measure of the efficacy of a compound. Membranes from CHO (Chinese Hamster Ovary) cells that stably expressed the cloned human Mu opioid receptor were used in the experiments. In a final volume of 0.5 mL, 12 different concentrations of each test compound were incubated with 7.5 μg of CHO cell membranes that stably expressed the human μ opioid receptor. The assay buffer consisted of 50 mM Tris-HCl, pH 7.4, 3 mM MgCl2, 0.2 mM EGTA, 3 μM GDP, and 100 mM NaCl. The final concentration of [^35S]GTPγS was 0.080 nM. Nonspecific binding was measured by inclusion of 10 μM GTPγS. Binding was initiated by the addition of the membranes. After an incubation of 60 min at 30° C., the samples were filtered through Schleicher & Schuell No. 32 glass fiber filters. The filters were washed three times with cold 50 mM Tris-HCl, pH 7.5, and were counted in 2 mL of Ecoscint scintillation fluid.

[5] = system: acetic acid induced writhing; test: Acetic-acid induced writhing model of inflammatory pain; format: in vivo; details: mice, intraperitoneal, 1% acetic acid
Method: The number of writhes was counted for 15 minutes (3 consecutive 5 minute time bins). […] “Normal” posture was defined as movements opposite to those listed above (e.g. convex curvature of the spine, legs not extended, abdomen not lowered, tail in a straight or relaxed position, etc).
The total number of writhes over the 15 minute test session was used for all data analysis. All data was transformed using GraphPad Prism to % change from daily vehicle control for analysis based on the number of writhes produced by the saline vehicle control group (% change=# writhes in test group/mean # of writhes in daily vehicle control group*100).

[6] = CHO cell membranes, cloned human receptor, 1 nM [3H]U69,593
[7] = read-out: Binding affinity δ (Ki, nm)
[8] = [35S]GTPγS binding, CHO membranes
[9] = CHO cell membranes, cloned human receptor, […] [3H]DAMGO
[10] = uM, read-out: Binding affinity δ (Ki)

| Molecule | Clinical Observations after 10 mg/kg subcutaneous injection (mice) | Ki (human κ opioid receptor; [6]) | Ki (human δ opioid receptor; [7]) | In vitro functional agonism for μ receptor Agonist? (human μ opioid receptor [4]; [8]) | Ki (human μ opioid receptor [3]; [9]) | further results |
| --- | --- | --- | --- | --- | --- | --- |
| CN1CC[C@]23c4c5ccc(O)c4O[C@H]2[C@@H](O)C=CC3C1C5 (stereo partly shown) [A, morphine, reference compound] | Multiple central nervous system like effects: Straub tail, hyperlocomotion, circling | – | – | – | – | ED50 (formalin-induced events; subcutaneous): 2.4 mg/kg; Effect on early and late phase of formalin test (formalin-induced events; 10 mg/kg): completely mitigates both the early and late phase effects of formalin; Analgesic effect with concurrent intra-plantar 75 ug naloxone methiodide [1]: significantly inhibited; Reversal of CFA-induced weight bearing deficits [1]: dose-dependent reversal of CFA-induced weight bearing deficits; Hot plate antinociception (response latency) ([2]; SC 7.5 mg/kg, hot plate 52.5° C.): 60 s; Clinical Observations after 10 mg/kg subcutaneous injection (mice; listed as morphine): severe effects that reflect mu agonism in the brain |
| CN1CC[C@]23CC(=O)CC[C@@]2(O)[C@H]1Cc1ccc(C(=O)NCCc2ccc(-c4ccccc4)cc2)c(O)c13.Cl [B, reference compound] | Angioedema; Straub tail, hypolocomotion, mortality | 0.71 nM | 0.0054 µM | – | – | Ki (human μ opioid receptor [3]): 0.39 nM; In vitro functional agonism for μ receptor Agonist? (human μ opioid receptor [4]): Yes; Clinical Observations after 10 mg/kg subcutaneous injection (mice; listed as Compound-B): severe effects that reflect mu agonism in the brain; also recorded: observed mortality |
| CN1CC[C@]23CC(=O)CC[C@@]2(O)[C@H]1Cc1ccc(C(=O)NCCc2nc4ccccc4[nH]2)c(O)c13 [Compound 1] | None | 850 nM | 0.49 µM | – | – | Ki (human μ opioid receptor [3]): 27 nM; In vitro functional agonism for μ receptor Agonist? (human μ opioid receptor [4]): Yes |
| O=C1CC[C@@]2(O)[C@H]3Cc4ccc(C(=O)NCCc5ccc(-c6c[nH]c(=O)[nH]c6=O)cc5)c(O)c4[C@@]2(CCN3CCc2ccccc2)C1 [Compound 2, N-{2-[4-(2,4-Dioxo-1,2,3,4-tetrahydropyrimidin-5-yl)phenyl]ethyl}-4,14-dihydroxy-6-oxo-17-(2-phenylethyl)morphinan-3-carboxamide] | None | – | – | Yes | – | – |
| CN1CC[C@]23CC(=O)CC[C@@]2(O)[C@H]1Cc1ccc(C(=O)NCCc2ccc(-c4ccc(=O)[nH]c4)cc2)c(O)c13 [Compound 3] | None | 180 nM | 0.017 µM | Yes | 0.63 nM | – |
| CN1CC[C@]23CC(=O)CC[C@@]2(O)[C@H]1Cc1ccc(C(=O)NCCc2ccc(-c4cnc(O)nc4O)cc2)c(O)c13 [Compound 4] | None | – | – | Yes | 1.3 nM | Ki (human κ opioid receptor): 190 nM; Ki (human δ opioid receptor; [10]): > 1 µM; ED50 (formalin-induced events; subcutaneous): 3.62 mg/kg; Early Phase versus Late Phase effect in formalin test (formalin-induced events; subcutaneous): more robust effect of Compound 4 in the Late Phase effects than the Early Phase; Effect on formalin-induced events (formalin-induced events; subcutaneous, dose response): dose-dependent reversal of formalin-induced events; ED50 ([5]; Mus musculus, ip): 0.7 mg/kg; Effect on acetic acid induced writhing [5]: blocked acetic acid induced writhing in a dose-dependent manner; Analgesic effect with concurrent intra-plantar 75 ug naloxone methiodide [1]: significantly inhibited; Reversal of CFA-induced weight bearing deficits [1]: dose-dependent reversal of CFA-induced weight bearing deficits; also recorded: comparable to that seen with Morphine; Hot plate efficacy at the highest dose tested ([2]; SC 100 mg/kg): sub-maximal efficacy; Hot plate activity compared with morphine ([2]; SC 10, 30 and 100 mg/kg): significantly less active than morphine |
| C=C1CC[C@@]2(O)[C@H]3Cc4ccc(C(=O)NCCc5ccc(-c6c[nH]c(=O)[nH]c6=O)cc5)c(O)c4[C@@]2(CCN3C)C1 [Compound 6] | None | 1000 nM | 0.097 µM | Yes | 3.5 nM | – |
| CO[C@@]12CCC(=O)C[C@@]13CCN(C)[C@@H]2Cc1ccc(C(=O)NCCc2ccc(-c4c[nH]c(=O)[nH]c4=O)cc2)c(O)c13 [Compound 7] | None | 860 nM | 0.042 µM | – | – | Ki (human μ opioid receptor [3]): 0.52 nM; In vitro functional agonism for μ receptor Agonist? (human μ opioid receptor [4]): Yes |
| CN1CC[C@]23CC(=O)CC[C@@]2(O)[C@H]1Cc1ccc(C(=O)NCCc2ccc(-c4cn[nH]c4)cc2)c(O)c13 [Compound 8] | None | 19 nM | 0.0021 µM | Yes | 0.15 nM | – |
| CN1CC[C@]23CC(=O)CCC2[C@H]1Cc1ccc(C(=O)NCCc2nc4ccccc4[nH]2)c(O)c13 (stereo partly shown) [Compound 9] | None | 400 nM | 0.28 µM | Yes | 1.7 nM | – |
| CN1CC[C@]23CC(=O)CC[C@@]2(O)[C@H]1Cc1ccc(C(=O)NCCc2ccc(-c4cc[nH]c(=O)c4)cc2)c(O)c13 [Compound 10, 4,14-dihydroxy-N-{2-[4-(2-hydroxypyridin-4-yl)phenyl]ethyl}-17-methyl-6-oxomorphinan-3-carboxamide] | None | – | 0.01 µM | Yes | 0.43 nM | Ki (human κ opioid receptor): 140 nM |
| CN1CC[C@]23CC(=O)CC[C@@]2(O)[C@H]1Cc1ccc(C(=O)NCCc2ccc(-c4cnc(=O)[nH]c4)cc2)c(O)c13 [Compound 11, 4,14-dihydroxy-17-methyl-6-oxo-N-{2-[4-(2-oxo-1,2-dihydropyrimidin-5-yl)phenyl]ethyl}morphinan-3-carboxamide maleate salt] | None | – | – | Yes | 1.6 nM | Ki (human δ opioid receptor; [10]): > 1 µM |
| (4bS,9R)—N-(4-(2,4-dioxo-1,2,3,4-tetrahydropyrimidin-5-yl)phenethyl)-4-hydroxy-11-methyl-6-oxo-6,7,8,8a,9,10-hexahydro-5H-9,4b-(epiminoethano)phenanthrene-3-carboxamide [Compound 5] | None | – | 0.051 µM | Yes | 1.7 nM | Ki (human κ opioid receptor): 680 nM |
